Earlier results in patent publication US20140051737A1, “METHODS FOR THE TREATMENT AND DIAGNOSTIC OF PULMONARY ARTERIAL HYPERTENSION” (UNIVERSITE LAVAL, priority 2011, published 2014).

Tested on: patients carrying the BRCA1 or BRCA2 mutation
Settings: cited from earlier work

## O=C(c1cc(Cc2n[nH]c(=O)c3ccccc23)ccc1F)N1CCN(C(=O)C2CC2)CC1 [olaparib]
  objective antitumor activity: only showed objective antitumor activity in patients carrying the BRCA1 or BRCA2 mutation
